Measured values from patent publication US10450327B2, “Epidithiodioxopiperazine compound or its derivatives, and the use thereof” (priority 2011, dated 2019).

What was measured:
[1] = system: PDGFRβ, PLCγ1, VEGFR2 and ERK; experiment: PDGF and VEGF signaling in vascular cells from PrxII−/− mouse; type: cell-based; conditions: cells separated from PrxII−/− mouse, PDGF-BB or VEGF-A 10 minutes
Procedure: Aortic vascular smooth muscle (A) and endothelial cells (B) were separated from a normal mouse and a PrxII−/− mouse, and cultured, and then treated with PDGF-BB and VEGF-A for 10 minutes each after either treating with GT or no treating. The activation of PDGFRβ, PLCγ1, VEGFR2 and ERK was analyzed using a phosphorylation-specific binding antibody for each protein.

[2] = system: SK-MEL-28 (SK28) melanoma cells; experiment: Intracellular hydrogen peroxide, SK28 melanoma cells; type: cell-based, human; conditions: PrxII-deficient SK28 cells, nontoxic level of GT
Procedure: The intracellular H2O2 level was measured using 5,6-chloromethyl-2′,7′-dichlorodihydrofluorescein diacetate (CM-DCFH-DA, Invitrogen), an oxidation-sensitive fluorescent dye. Human epidermal melanocyte, SK-MEL-5, SK-MEL-28, A375 and G361 cells (3×10^5) were grown in a 35 mm culure dish and infected with retroviruses for 24 hours. After that, the cells were serum-starved for 18 hours, and stimulated with 20% FBS for 10 minutes in a phenol red-free medium. After stimulated as described above, the cells were quickly rinsed with a Krebs-Ringer solution, and incubated with 5 μM CM-DCFH-DA for 5 minutes. 2′,7′-dichlorodihydrofluorescein (DCF) fluorescence was collected for 10 seconds using an inverted Axiovert 200 fluorescence microscope (Zeiss). The relative DCF fluorescence was calculated by averaging the fluorescence intensities of 60 to 80 cells after subtracting the background fluorescence from each image using an ImageQuant™ software (GE Healthcare). The desorbed sphenoid cells were excluded from quantification.
This proves the peroxidase activity of GT. Again, while GT treatment in the SK28 cells reduced Src/ERK activation and β-catenin phosphorylation, it increased the expression of E-cadherin (FIG. 53B). Furthermore, GT reduced the proliferation and the migration responding to serum stimulation in both SK5 and SK28 cells (FIGS. 53C and D).

[3] = system: VEGFR2 and ERK; experiment: VEGF-induced signaling, immunoblot, PrxII knocked down HAECs; type: cell-based, human; conditions: 2 hours pretreatment, VEGF 10 minutes
Procedure: The cells were rinsed with an ice-cold phosphate buffered saline (PBS) solution and then lysed in an extraction buffer solution containing 20 mM Hepes (pH 7.0), 1% Triton X-100, 150 mM NaCl, 10% glycerol, 1 mM EDTA, 2 mM EGTA, 1 mM DTT, 5 mM Na3VO4, 5 mM NaF, 1 mM AEBSF, aprotinin (5 μg/ml), and leupeptin (5 μg/ml). After being centrifuged at 12,000×g, the purified cell extracts were used for immunoblotting. In order to adjust the loading, the membranes were stripped by shaking them for 30 minutes at 60° C. in 67 mM Tris (pH 6.7), 2% SDS, and 100 mM 2-mercaptoethanol solution, and reprobed with an appropriate pan antibody.
In addition, the regulatory effects of GT on the PDGFRβ- and VEGFR2-mediated signaling pathway were examined. The GT treatment in HASMCs was quite different from PDGF-induced tyrosine phosphorylation that was enhanced by the PrxII knockdown (FIG. 12a). […] Conversely, the GT treatment in HAECs restored the VEGF-dependent activation of VEGFR2 and ERK that had been diminished by the PrxII knockdown (FIG. 12b). The effects of GT in vascular cell fuction were further validated.
Lastly, the effects of GT, a representative ETP compound, on vascular cells were compared with the effects of other compounds known as anti-oxidant compounds such as N-acetylcysteine or butylated hydroxyanisole, and the results are shown in FIG. 33. Immunoblotting was performed by pretreating HAECs in which PrxII was knocked down by injecting siRNA with each compound at the concentrations indicated in the graphs for two hours, and then treating with VEGF for 10 minutes. […] These comparative experiments led the inventors of the present invention to conclude that the distinguished […] function of the ETP compounds is clearly due to the PrxII-analogous activity, and additionally to the special chemical property of the dithioketopiperazine ring.

[4] = system: SK-MEL-28 (SK28) cells; experiment: Melanoma proliferation and migration assay, SK28; type: cell-based, human; conditions: 100 nM, 1 hour pretreatment
Procedure: The extent of cell proliferation was measured using a WST-1 cell proliferation assay kit (Roche Diagnostics, USA) according to the protocol of the manufacturer. The number of cells was expressed as an absorbance value at 450 nm averaged from 3 wells after subtracting the turbidity at 600 nm. The chemotactic transmigration assay was performed in a 24-well Transwell culture chamber (Costar; polycarbonate membrane insert with 8-μm pore size). The bottom of the insert was coated with gelatin B (1 mg/ml) and air-dried for 1 hour. Retroviruses or transfection complexes were treated to melanoma cells (6×10^3). After 24 hours, the infected or transfected melanoma cells were serum-starved for 18 hours. A 20% FBS solution was added to bottom chambers including a basal medium containing 0.5% BSA. The upper chamber wells were each filled with a basal medium including 0.5% BSA. The Transwell chamber was incubated for 12 hours in a 37° C./5% CO2 incubator. After the incubation, the non-migrating cells at the top of the filter were removed. The cells that migrated onto the bottom of filter were fixed and stained with 0.6% hematoxylin and 0.5% eosin. The stained cells were photographed and counted. The number of migrating cells was averaged from 3 wells. […]

[5] = system: B16F10 melanoma cells; experiment: Metastasis of B16F10 melanoma cells to lung in mouse; type: in vivo
Procedure: After B16F10 cells were temporarily transfected with PrxII siRNA for 24 hours and trypsinized, the cells were resuspended in a Hank's balanced salt solution (HBSS). The cell suspension was injected by intravenous injection to a C57/BL6 mouse (1×10^6 cells per mouse). The mouse was sacrified after 10 days, and the lung was removed after transcardia perfusion-fixation with a heparinized saline solution including 3.7% formaldehyde. The removed lung was paraffin embedded and sectioned using a rotary microtome (Leica RM2255). Two serial tissue sections (4 μm in thickness) were stained with haematoxylin and eosin. The melanoma tumor nodules metastasized from the surface of the lung and the HE-stained tissue sections were counted. In order to verify the effects of gliotoxin (GT), chaetocin and chetomin, the melanoma cells were intravenously injected to the C57/BL6 mouse, and then gliotoxin (300 mg/kg) was intraperitoneally injected for 5 times over 10 days.

CN1C(=O)[C@]23CC4=CC=C[C@H](O)[C@H]4N2C(=O)[C@@]1(CO)SS3 [gliotoxin]
effects on PDGF signaling in VSMC and VEGF signaling in VEC [1]: opposed regulatory effects | level of intracellular hydrogen peroxide [2]: reduced | VEGF-dependent activation of VEGFR2 and ERK [3]: restored | proliferation and migration responding to serum stimulation, SK28 [4]: reduced | metastasis of B16F10 melanoma cells to lung (tumor nodules) ([5]; i.p. 5 times over 10 days after i.v. injection of B16F10 cells): significantly reduced | metastasis of PrxII-knocked down B16F10 to lung ([5]; mPrx2-1 siRNA-transfected cells, i.p. 5 times over 10 days): more significantly reduced
